We go through two compounds from patent US20050272677A1, “Delivery of a substance to a pre-determined site” (priority 2002, published 2005).

In experiment [1] the test system is pB104 strain (MscL null E. coli). In words: Growth assay of MscL mutants on agar plates with or without IPTG. Particulars: pB104 with Lac-inducible plasmid. It counts as cell-based. On the set-up: key: ++++: growth equal to cells expressing wild-type MscL; growth is indicated by ++++ to −; growth is indicated by ++++ to −; growth is indicated by ++++ to −; −: an absence of growth. On the procedure: The constructs of the MscL-6His mutants were constructed using standard molecular biology techniques. The mutants were tested in the pB104 strain (MscL null E. coli) by a growth assay on agar plates with or without IPTG (K. Yoshimura et al., 1999, Biophys. J. 77:1960-1972).
The first phenotype (++) grows like the single G22S mutant.

The test system of experiment [2] is MscL. The settings on record: spheroplasts. On the procedure:
Patch-clamp experiments on spheroplast allow quantitation of the tension sensitivity because of the presence of an internal control, which is the mechanosensitive channel of small conductance (MscS). […] For most clinical applications, it is important that the channel remains closed at pH values of 7.4.
Giant spheroplasts were prepared as described before and electrophysiological measurements were done by using symmetrical buffers, both in the bath and in the pipette. The gating threshold of MscL (or its mutant) is given as the ratio of the suction required to open MscL to that at which MscS opens.
Giant spheroplasts were prepared as described in P. Blount, et al., 1999, Methods Enzymol. 294:458-482.

For experiment [3], the system named is pB104 strain (MscL null E. coli). In words: MTSET shock assay on agar plates with IPTG. The format is cell-based. On the set-up: Growth −MTSET-shock: key to the marks not given beside the values. On the procedure: The constructs of the G20C^Ll, V21C^Ll and G22C^Ec MscL-6His mutants were constructed using standard molecular biology techniques. The mutants were tested in pB104 strain (MscL null E. coli) by a MTSET shock assay on agar plates with IPTG (A. F. Batiza, et al., 2002, PNAS, 99:5643-5648).

Experiment [4] deals with T1, MscL (Escherichia coli, UniProt P0A742).
T1 sequence (P0A742 whole entry, looked up): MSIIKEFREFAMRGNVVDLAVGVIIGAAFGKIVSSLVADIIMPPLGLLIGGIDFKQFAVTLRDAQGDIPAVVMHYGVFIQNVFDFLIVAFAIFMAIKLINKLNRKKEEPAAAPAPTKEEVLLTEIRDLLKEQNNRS
The format is biochemical, E. coli. On the procedure:
Results Overexpression and Purification of the MscL Channel Protein
Samples were prepared and calcein efflux was monitored as described elsewhere in Example 1.
300 μl of detergent-treated liposomes were gently mixed with 240 μl of 0.25 mg/ml purified MscL-mutant G22C in elution buffer containing 0.2% Triton X-100. The mixture was incubated at 60° C. for 45 minutes, followed by the addition of an equal volume (540 μl) of calcein-loading buffer, containing 200 mM calcein, 25 mM Tris, 1 mM EDTA, pH 8.0. After addition of 20 mg of Triton X-100-absorbing Bio-Beads SM-2, the mixture was gently agitated for one hour at room temperature. Subsequently, 80 mg Bio-Beads were added and incubated at 4° C. overnight under mild agitation. Samples were prepared for calcein efflux assay as described elsewhere.

In experiment [5] the test system is MscL. The settings on record: pH 6; Yoshimura et al. 1999; cited from earlier work.
Experiment [6] is described as follows: In vivo delivery of luciferase DNA complexed with Sunfish amphiphiles. The settings on record: 24 hours; efficiency order SF-46>SF-36>SF-6>SF-30>SF-63. Details: species or system mouse. On the procedure: Sunfish (SF) amphiphiles were tested and compared to DOTAP, a commercially available amphiphile (Avanti Polar Lipids). The used plasmid DNA codes for Luciferase, which is expressed upon transfection. Luciferase activity represents the efficiency of transfection. Liposomes were prepared by drying the Sunfish amphiphiles or DOTAP in glass tubes under a nitrogen flow followed by being under vacuum for one hour. The lipid film was resuspended in 20% sucrose by mixing and warming up for five minutes to 60° C. in a water bath. The liposomal suspension was then sonicated for three minutes. For lipoplexes formation, plasmid DNA (30 μg/mouse) diluted in 20% sucrose was added to the liposomes (450 nmol/mouse) under mixing. The lipoplexes were allowed to rest at room temperature for […] and were intravenously injected (150 μl) in male BALB/c mice. Organs (lungs, heart, liver, spleen and kidneys) were collected 24 hours after injection for analysis. Luciferase activity was measured in homogenates of the different organs and related to a standard curve obtained with purified recombinant Luciferase.

Experiment [7] relates to neurospheres (neural stem cells). Description: Ex vivo transfection of neurospheres with pEGFP-N1 lipoplexes. It counts as cell-based, mice. The settings on record: 4 hours incubation, read after two days. On the procedure:
Neural stem cells were isolated from the forebrain of mice embryos and cultured in the presence of epidermal growth factor (EGF) and fibroblast growth factor (FGF). In the presence of these growth factors, neural stem cells form neurospheres, clusters of cells that grow in suspension.
Prior to transfection of neurospheres, the spheres were immobilized on Labtek culture plates that were coated with poly-ornithine. Subsequently, neurospheres were incubated for 4 hours with SF-6/DOPE (1:1 molar ratio), SF-63, SF-80/DOPE (1:1 molar ratio), or Lipofectamine 2000 lipoplexes, containing plasmid DNA encoding Enhanced Green Fluorescent Protein (pEGFP-N1). After two days, the transfection efficiency was determined with fluorescence microscopy.

Read-outs that look alike come from different tables or passages of the source.

With “WT: wild-type E. coli MscL (6His construct)”, in experiment [1] (with IPTG), the “Growth on agar plates +IPTG” value is on record as “++++”. Besides, the “Growth on agar plates −IPTG” value in experiment [1] (without IPTG) is recorded as “++++”. In addition, the “Gating threshold (ratio of activation pressure to that of MscS)” value is 1.53 ± 0.185 with MscL [2] (pH 5.85), 1.56 ± 0.139 with MscL [2] (pH 7.5) and 1.64 ± 0.08 in the experiment on MscL [5]. Further, the “Growth after +MTSET-shock” value in experiment [3] was “++++”. Besides, in experiment [3], the “Growth −MTSET-shock” value is recorded as “++++”. The “calcein efflux upon osmotic downshock” value in the experiment with MscL [4] was “greater efflux of calcein than liposomes without MscL”.
`CCCCCCCC/C=C\CCCCCCCCCc1ccc[n+](CCCCCCCC/C=C\CCCCCCCC)c1.[Cl-]` [SF-63, 1-(9′-cis-octadecenyl)-3-(10″-cis-nonadecenyl)pyridinium Chloride]: the “gene expression (Luciferase) after intravenous injection of complexed DNA” value in experiment [6] is recorded as “resulted in gene expression in the lungs”. For the same compound, the “transfection efficiency (GFP, fluorescence microscopy)” value in experiment [7] is given as “constant”.
